# Measurements: ChEMBL document CHEMBL3862031, “Design, synthesis and activity of novel sorafenib analogues bearing chalcone unit” (Bioorg Med Chem Lett, 2016)
# pIC50: −log10 of the molar value.
# Legend:
# [1] = (§1) Cytotoxicity against human A549 cells after 72 hrs by MTT assay; type: functional, cell-based; details: A549, 72 h
# [2] = (§2) Cytotoxicity against human HepG2 cells after 72 hrs by MTT assay; type: functional, cell-based; details: HepG2, 72 h
# [3] = (§3) Cytotoxicity against human MCF7 cells after 72 hrs by MTT assay; type: functional, cell-based; details: MCF7, 72 h
# [4] = (§4) Cytotoxicity against human PC3 cells after 72 hrs by MTT assay; type: functional, cell-based; details: PC-3, 72 h
# MCF7 [5] = assay: Potency index, ratio of sorafenib IC50 to compound IC50 for human MCF7 cells; type: functional
# [6] = molecular target: Vascular endothelial growth factor receptor 2 (Homo sapiens, UniProt P35968); assay: Inhibition of VEGFR2 (unknown origin) using FAM-labeled peptide as substrate preincubated for 10 mins followed by substrate addition by mobility shift assay
# Chain of Vascular endothelial growth factor receptor 2 (P35968 whole entry): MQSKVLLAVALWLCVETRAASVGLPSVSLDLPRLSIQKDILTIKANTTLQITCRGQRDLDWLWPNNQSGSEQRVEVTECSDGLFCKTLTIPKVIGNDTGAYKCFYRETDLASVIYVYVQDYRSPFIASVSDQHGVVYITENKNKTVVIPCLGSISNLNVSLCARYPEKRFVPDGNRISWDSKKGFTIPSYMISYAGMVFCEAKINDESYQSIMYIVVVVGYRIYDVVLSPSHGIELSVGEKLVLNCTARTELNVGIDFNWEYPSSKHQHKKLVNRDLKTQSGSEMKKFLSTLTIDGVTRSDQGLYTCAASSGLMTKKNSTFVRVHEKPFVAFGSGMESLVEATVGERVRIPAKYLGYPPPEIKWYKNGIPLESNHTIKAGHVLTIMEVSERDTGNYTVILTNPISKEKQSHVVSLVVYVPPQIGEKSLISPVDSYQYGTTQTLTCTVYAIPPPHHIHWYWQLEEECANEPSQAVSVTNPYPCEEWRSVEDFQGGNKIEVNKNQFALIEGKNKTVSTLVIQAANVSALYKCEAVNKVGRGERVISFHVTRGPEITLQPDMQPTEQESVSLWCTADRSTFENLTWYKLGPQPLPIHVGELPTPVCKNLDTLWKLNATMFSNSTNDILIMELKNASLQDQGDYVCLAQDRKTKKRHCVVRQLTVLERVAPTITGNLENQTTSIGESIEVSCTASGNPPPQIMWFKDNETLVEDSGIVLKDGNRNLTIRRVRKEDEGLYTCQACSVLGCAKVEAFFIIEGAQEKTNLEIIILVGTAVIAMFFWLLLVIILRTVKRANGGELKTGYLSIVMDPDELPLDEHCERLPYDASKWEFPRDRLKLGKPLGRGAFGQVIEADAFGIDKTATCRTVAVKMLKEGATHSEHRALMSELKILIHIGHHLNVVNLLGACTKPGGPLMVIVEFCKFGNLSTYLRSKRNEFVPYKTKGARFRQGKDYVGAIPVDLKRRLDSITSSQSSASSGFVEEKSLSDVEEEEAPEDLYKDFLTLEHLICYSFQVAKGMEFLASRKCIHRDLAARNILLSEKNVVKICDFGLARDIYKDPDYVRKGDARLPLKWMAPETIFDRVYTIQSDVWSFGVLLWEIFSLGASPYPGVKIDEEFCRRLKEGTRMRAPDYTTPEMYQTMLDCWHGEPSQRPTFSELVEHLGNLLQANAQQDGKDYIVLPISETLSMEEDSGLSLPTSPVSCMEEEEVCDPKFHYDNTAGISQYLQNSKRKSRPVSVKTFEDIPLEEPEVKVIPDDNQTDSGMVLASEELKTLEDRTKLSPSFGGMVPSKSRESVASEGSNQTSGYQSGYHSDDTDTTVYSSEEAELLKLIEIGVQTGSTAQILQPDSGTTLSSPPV
# [7] = molecular target: Serine/threonine-protein kinase B-raf (Homo sapiens, UniProt P15056); assay: Inhibition of BRAF (unknown origin) using FAM-labeled peptide as substrate after 1 hr by Lanthascreen assay
# Chain of Serine/threonine-protein kinase B-raf (P15056 whole entry): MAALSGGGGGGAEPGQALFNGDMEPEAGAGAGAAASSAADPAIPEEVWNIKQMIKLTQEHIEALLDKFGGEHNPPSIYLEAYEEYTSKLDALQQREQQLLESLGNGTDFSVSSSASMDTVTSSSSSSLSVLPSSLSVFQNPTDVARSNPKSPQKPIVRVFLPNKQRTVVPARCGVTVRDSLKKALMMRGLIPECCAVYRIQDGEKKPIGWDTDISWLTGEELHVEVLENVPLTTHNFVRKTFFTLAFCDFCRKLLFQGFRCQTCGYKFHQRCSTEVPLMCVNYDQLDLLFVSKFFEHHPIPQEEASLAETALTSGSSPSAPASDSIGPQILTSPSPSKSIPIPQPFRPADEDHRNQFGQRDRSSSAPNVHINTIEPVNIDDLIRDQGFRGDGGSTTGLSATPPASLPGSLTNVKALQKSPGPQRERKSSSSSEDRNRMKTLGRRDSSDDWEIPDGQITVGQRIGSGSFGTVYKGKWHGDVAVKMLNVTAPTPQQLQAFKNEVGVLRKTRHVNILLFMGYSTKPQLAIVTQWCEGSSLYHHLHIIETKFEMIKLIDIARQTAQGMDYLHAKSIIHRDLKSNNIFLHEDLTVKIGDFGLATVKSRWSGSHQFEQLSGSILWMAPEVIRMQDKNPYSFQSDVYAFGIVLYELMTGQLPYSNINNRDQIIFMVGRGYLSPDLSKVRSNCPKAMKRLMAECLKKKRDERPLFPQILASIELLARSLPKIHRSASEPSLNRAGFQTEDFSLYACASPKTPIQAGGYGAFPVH
# A549 = assay: as §1; type: functional, cell-based
# HepG2 [8] = assay: as §2; type: functional, cell-based
# MCF7 [9] = assay: as §3; type: functional, cell-based
# PC-3 [10] = assay: as §4; type: functional, cell-based
# HepG2 [11] = assay: Potency index, ratio of sorafenib IC50 to compound IC50 for human HepG2 cells; type: functional
# PC-3 [12] = assay: Potency index, ratio of sorafenib IC50 to compound IC50 for human PC3 cells; type: functional
Compound,pIC50 [1],pIC50 [2],pIC50 [3],pIC50 [4],other results
CNC(=O)c1cc(Oc2ccc(/C=C/C(=O)c3ccc(Br)cc3)cc2)ccn1,4.70,4.66,5.15,5.45,–
CNC(=O)c1cc(Oc2ccc(C(=O)/C=C/c3ccc(OC)cc3)cc2)ccn1,< 4.30,–,–,< 4.30,–
CNC(=O)c1cc(Oc2ccc(/C=C/C(=O)c3ccc(Cl)cc3)cc2)ccn1,–,4.44,4.76,–,–
CNC(=O)c1cc(Oc2ccc(C(=O)/C=C/c3ccc(F)cc3)cc2)ccn1,4.73,4.90,4.55,5.21,–
CNC(=O)c1cc(Oc2ccc(/C=C/C(=O)c3ccc(F)cc3)cc2)ccn1,–,4.91,5.69,–,Ratio IC50 (MCF7 [5]): 1.55; pIC50 [6]: < 4.30; pIC50 [7]: < 4.30
CNC(=O)c1cc(Oc2ccc(C(=O)/C=C/c3cccc(Cl)c3Cl)cc2)ccn1,< 4.30,< 4.30,–,< 4.30,–
CNC(=O)c1cc(Oc2ccc(C(=O)/C=C/c3ccc([N+](=O)[O-])cc3)cc2)ccn1,< 4.30,–,–,4.96,–
CNC(=O)c1cc(Oc2ccc(C(=O)/C=C/c3ccc(F)cc3Cl)cc2)ccn1,4.68,5.14,4.68,5.32,–
CNC(=O)c1cc(Oc2ccc(C(=O)/C=C/c3ccc(C#N)cc3)cc2)ccn1,4.58,5.27,5.02,5.41,–
CNC(=O)c1cc(Oc2ccc(C(=O)/C=C/c3ccc(Br)cc3)cc2)ccn1,< 4.30,< 4.30,< 4.30,4.73,–
CNC(=O)c1cc(Oc2ccc(/C=C/C(=O)c3ccc(C)cc3)cc2)ccn1,–,< 4.30,4.60,–,–
CNC(=O)c1cc(Oc2ccc(/C=C/C(=O)c3ccc([N+](=O)[O-])cc3)cc2)ccn1,–,4.38,4.27,–,–
CNC(=O)c1cc(Oc2ccc(C(=O)/C=C/c3cccc(Br)c3)cc2)ccn1,5.00,5.54,4.98,5.47,Activity (A549): Dose-dependent effect; Activity (HepG2 [8]): Dose-dependent effect; Activity (MCF7 [9]): Dose-dependent effect; Activity (PC-3 [10]): Dose-dependent effect; pIC50 [6]: 6.14; pIC50 [7]: 5.54
CNC(=O)c1cc(Oc2ccc(C(=O)/C=C/c3cc(OC)c(OC)c(OC)c3)cc2)ccn1,5.02,6.25,5.41,5.50,Ratio IC50 (MCF7 [5]): 1.03 - 6.14; Ratio IC50 (HepG2 [11]): 6.14; Ratio IC50 (PC-3 [12]): 1.03 - 6.14; pIC50 [6]: 5.49; pIC50 [7]: 5.74
CNC(=O)c1cc(Oc2ccc(C(=O)/C=C/c3ccc(OC)c(OC)c3OC)cc2)ccn1,–,5.01,5.54,–,–
CNC(=O)c1cc(Oc2ccc(C(=O)/C=C/c3ccccc3)cc2)ccn1,5.30,5.18,5.22,5.50,Ratio IC50 (PC-3 [12]): 1.02; pIC50 [6]: 5.96; pIC50 [7]: 5.62
CNC(=O)c1cc(Oc2ccc(C(=O)/C=C/c3ccc(Cl)c(Cl)c3)cc2)ccn1,4.47,4.94,4.88,5.08,–
CNC(=O)c1cc(Oc2ccc(NC(=O)Nc3ccc(Cl)c(C(F)(F)F)c3)cc2)ccn1 [SORAFENIB],5.53,5.46,5.50,5.49,–
CNC(=O)c1cc(Oc2ccc(C(=O)/C=C/c3cccc([N+](=O)[O-])c3)cc2)ccn1,–,< 4.30,< 4.30,–,–
CNC(=O)c1cc(Oc2ccc(C(=O)/C=C/c3ccc(Cl)cc3Cl)cc2)ccn1,5.02,4.93,5.40,5.04,–
